Tests used:
[1] = Neutral red uptake viability assay, SW620D; type: cell-based, human; conditions: human, SW620D cells (doxorubicin-resistant), 72 h, n = 3, read-out: Cytotoxic activity IC50 (95% CI)
[2] = target: T1, ABCG2 (Homo sapiens, UniProt Q9UNQ0); experiment: Pheophorbide A accumulation transport assay in SW620Mito cells; type: cell-based; conditions: 10 µM compound
T1 construct: ABCG2-overexpressing SW620C and SW620Mito; endogenous in cells; host or cells: SW620Mito (mitoxantrone-resistant variant of SW620, developed in the authors' laboratory by drug selection)
T1 sequence (Q9UNQ0 1-655): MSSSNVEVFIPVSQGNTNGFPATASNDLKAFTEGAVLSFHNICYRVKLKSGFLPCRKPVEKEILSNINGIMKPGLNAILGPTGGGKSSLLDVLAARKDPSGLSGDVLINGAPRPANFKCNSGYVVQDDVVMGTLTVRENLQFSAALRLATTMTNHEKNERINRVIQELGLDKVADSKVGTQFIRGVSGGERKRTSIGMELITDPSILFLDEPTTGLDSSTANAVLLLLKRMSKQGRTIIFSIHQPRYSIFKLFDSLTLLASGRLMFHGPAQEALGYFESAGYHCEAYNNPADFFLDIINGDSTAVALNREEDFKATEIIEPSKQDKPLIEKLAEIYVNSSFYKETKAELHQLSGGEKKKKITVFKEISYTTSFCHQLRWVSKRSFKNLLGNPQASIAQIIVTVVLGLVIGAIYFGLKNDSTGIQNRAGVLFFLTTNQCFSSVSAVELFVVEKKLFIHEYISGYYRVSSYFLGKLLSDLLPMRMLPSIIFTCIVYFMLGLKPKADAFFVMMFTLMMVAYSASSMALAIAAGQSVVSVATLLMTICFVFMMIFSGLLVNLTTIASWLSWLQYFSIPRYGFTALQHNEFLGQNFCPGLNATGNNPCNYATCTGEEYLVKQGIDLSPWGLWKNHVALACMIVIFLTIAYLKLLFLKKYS
Description: To confirm the hypothesis of direct interaction between putative ABC protein inhibitors and transporter molecules, we conducted a series of experiments based on fluorescent probe transport as described previously. None of the compounds affected 2′,7′-bis(2-carboxyethyl)-5-(and-6)-carboxyfluorescein (BCECF) efflux out of SW620M cells, indicating the lack of interaction between the putative inhibitors and ABCC1 (Figure A). […] As anticipated, none of the newly synthesized compounds affected dye accumulation in drug-sensitive SW620 cells (data not shown). […]
Respective samples were supplemented with a specific fluorescent marker (100 nM calcein AM for ABCB1, 100 nM BCECF AM for ABCC1, and 1 µM pheophorbide A for A BCG2). […] For ABCB1 and ABCG2 assays (dye accumulation assays), intracellular fluorescence was measured by flow cytometry (FACSymphony A1, Becton, Dickinson and Company, New Jersey, USA) immediately after dye addition (time 0) and every 3–5 min up to approximately 30 min using a flow cytometer set at 488 nm excitation and 530/30 nm emission for the calcein/ABCB1 assay and 400 nm excitation and 655/8 nm emission for the pheophorbide A/ABCG2 assay. […] The intracellular BCECF concentration was then immediately measured at 488 nm excitation and 530/30 nm emission (time 0). […]

| SMILES | IC50 at 72 h [1] [µM] | increase of intracellular retention of pheophorbide A [2] [fold] |
| --- | --- | --- |
| O=C1N/C(=C/c2ccccc2)C(=O)N2CCC[C@@H]12 [(S,E)-4e] | > 100 | – |
| O=C1N/C(=C\c2ccccc2-[c-]2cccc2)C(=O)N2CCC[C@@H]12.[Fe+2].c1cc[cH-]c1 [(S,Z)-4b] | – | ≤ 2.9 |
| O=C1N/C(=C\c2ccccc2)C(=O)N2CCC[C@@H]12 [(S,Z)-4e] | > 100 | – |
| O=C1N/C(=C\c2ccc(-[c-]3cccc3)cc2)C(=O)N2CCC[C@@H]12.[Fe+2].c1cc[cH-]c1 [(S,Z)-4d] | – | ≤ 2.9 |

Reference: article PMC12257394, “Design, Synthesis, and Biological Evaluation of Ferrocenyl–Cyclo-(Gly‑L‑Pro) Hybrids Sensitizing Multidrug-Resistant Cancer Cells to Anticancer Agents” (ACS Medicinal Chemistry Letters, 2025)
